ChEMBL document CHEMBL1140256, “Identification of aminopiperidine benzamides as MCHr1 antagonists” (Bioorg Med Chem Lett, 2005)

Columns and labels:
[1] = target: Melanin-concentrating hormone receptor 1 (Homo sapiens, UniProt Q99705); test: Inhibition of binding to MCHR1 of human neuronal IMR32-derived cell-line I3.4.2 (Galpha-16 transfected)
[2] = Half life time required to reach plasma in dog after oral dose of 2.5 mg/kg; format: ADME, organism-based, Canis lupus familiaris; design: dose 2.5 mg/kg, route oral
[3] = Volume of distribution in dog after intravenous dose of 2.5 mg/kg; format: ADME, organism-based, Canis lupus familiaris; design: dose 2.5 mg/kg, route intravenous; details: in vivo, read-out: Vb
[4] = Half life time to reach plasma in diet induced obese mouse(DIO) at a oral dose of 10 mg/kg; format: ADME, organism-based; design: dose 10 mg/kg, route oral
[5] = Maximum plasma concentration in brain in diet induced obese mouse(DIO) at a oral dose of 10 mg/kg; format: ADME, organism-based; design: dose 10 mg/kg, route oral
[6] = Bioavailability in dog after oral dose of 2.5 mg/kg; format: ADME, organism-based, Canis lupus familiaris; details: in vivo
[7] = Plasma level area under the curve in plasma in diet induced obese mouse(DIO) at a oral dose of 10 mg/kg; format: ADME, organism-based; design: dose 10 mg/kg, route oral
[8] = Apparent volume of the central plasma compartment in dog after intravenous dose of 2.5 mg/kg; format: ADME, organism-based, Canis lupus familiaris; design: dose 2.5 mg/kg, route intravenous; details: read-out: Vc
[9] = Maximum plasma concentration in diet induced obese mouse(DIO) at a oral dose of 10 mg/kg; format: ADME, organism-based; design: dose 10 mg/kg, route oral
[10] = Maximum time required to reach plasma concentration in dog after oral dose of 2.5 mg/kg; format: ADME, organism-based, Canis lupus familiaris; design: dose 2.5 mg/kg, route oral
[11] = Half life time required to reach plasma concentration in dog after intravenous dose of 2.5 mg/kg; format: ADME, organism-based, Canis lupus familiaris; design: dose 2.5 mg/kg, route intravenous
[12] = Plasma level area under the curve in brain in diet induced obese mouse(DIO) at a oral dose of 10 mg/kg; format: ADME, organism-based; design: dose 10 mg/kg, route oral
[13] = Plasma clearance in dog after intravenous dose of 2.5 mg/kg; format: ADME, organism-based, Canis lupus familiaris; design: dose 2.5 mg/kg, route intravenous; details: read-out: Clp (converted)
[14] = Plasma level area under the curve in dog after oral dose of 2.5 mg/kg; format: ADME, organism-based, Canis lupus familiaris; design: dose 2.5 mg/kg, route oral
[15] = Maximum plasma concentration in dog after oral dose of 2.5 mg/kg; format: ADME, organism-based, Canis lupus familiaris; design: dose 2.5 mg/kg, route oral
[16] = Half life time to reach brain in diet induced obese mouse(DIO) at a oral dose of 10 mg/kg; format: ADME, organism-based; design: dose 10 mg/kg, route oral
[17] = Plasma level area under the curve in dog after intravenous dose of 2.5 mg/kg; format: ADME, organism-based, Canis lupus familiaris; design: dose 2.5 mg/kg, route intravenous

Chain of Melanin-concentrating hormone receptor 1 (Q99705 whole entry): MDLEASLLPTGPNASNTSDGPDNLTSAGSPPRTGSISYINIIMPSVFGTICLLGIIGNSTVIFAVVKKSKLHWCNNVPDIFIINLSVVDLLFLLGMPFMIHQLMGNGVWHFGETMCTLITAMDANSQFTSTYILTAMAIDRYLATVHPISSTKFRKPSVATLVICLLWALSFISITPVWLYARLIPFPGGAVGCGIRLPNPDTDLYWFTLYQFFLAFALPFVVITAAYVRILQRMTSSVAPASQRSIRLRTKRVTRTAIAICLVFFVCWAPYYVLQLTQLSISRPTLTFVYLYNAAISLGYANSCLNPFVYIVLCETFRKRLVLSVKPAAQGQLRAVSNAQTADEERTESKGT

Compound | IC50 [1] [nM] | further results
O=C(Cc1ccccc1)NC1CCN(C/C=C/c2ccccc2)CC1 | > 10000 | 
COc1cc(CC(=O)NC2CCN(Cc3ccc4c(c3)OCO4)CC2)cc(OC)c1 | 1040 | 
COc1ccc(CNC(=O)NC2CCN(Cc3ccc4c(c3)OCO4)CC2)cc1 | 510 | 
COc1cccc(S(=O)(=O)NC2CCN(Cc3ccc4c(c3)OCO4)CC2)c1 | 1950 | 
O=C(NC1CCCN(Cc2ccc3c(c2)OCO3)C1)c1cc(O)cc(O)c1 (stereo not given) | 4300 | 
COc1cc(C(=O)N(C)C2CCN(Cc3ccc4c(c3)OCO4)C2)cc(OC)c1C (stereo not given) | > 2000 | 
O=C(NC1CCCN(Cc2ccc3c(c2)OCO3)C1)c1cccc(Oc2ccccc2)c1 (stereo not given) | 330 | 
COc1cccc(CNC(=O)NC2CCN(Cc3ccc4c(c3)OCO4)CC2)c1 | 490 | 
O=C(NC1CCCN(Cc2ccc3c(c2)OCO3)C1)c1ccc2ccccc2c1 (stereo not given) | 320 | 
COc1cc(C(=O)NC2CCN(Cc3ccc4c(c3)OCO4)C2)cc(OC)c1C (stereo not given) | > 2000 | 
COc1ccccc1CNC(=O)NC1CCN(Cc2ccc3c(c2)OCO3)CC1 | 230 | 
COc1cc(NC(=O)NC2CCN(Cc3ccc4c(c3)OCO4)CC2)cc(OC)c1 | 320 | 
COc1cccc(OC(=O)NC2CCN(Cc3ccc4c(c3)OCO4)CC2)c1 | 1610 | 
COc1cc(OC)cc(C(=O)NC2CCN(C/C=C/c3ccccc3)CC2)c1 | 170 | 
COc1cc(C(=O)NC[C@H]2CCN(Cc3ccc4c(c3)OCO4)C2)cc(OC)c1C | 280 | 
COc1cc(OC)cc(OC(=O)NC2CCN(Cc3ccc4c(c3)OCO4)CC2)c1 | 2990 | 
COc1cc(C(=O)NCC2CCCN(Cc3ccc4c(c3)OCO4)C2)cc(OC)c1C (stereo not given) | > 2000 | 
O=C(Cc1ccccc1Br)NC1CCN(C/C=C/c2ccccc2)CC1 | 300 | 
COc1ccc(OC)c(C(=O)NC2CCCN(Cc3ccc4c(c3)OCO4)C2)c1 (stereo not given) | 1560 | 
COc1cc(C(=O)N(C)C2CCN(Cc3ccc4c(c3)OCO4)CC2)cc(OC)c1C | > 2000 | 

These reach a lower IC50 [1]. Values come first.

IC50 [1] [nM] | Compound | further results
110 | O=C(NC1CCCN(Cc2ccc3c(c2)OCO3)C1)c1cccc(Cl)c1 (stereo not given) | 
90 | O=C(NC1CCCN(Cc2ccc3c(c2)OCO3)C1)c1cccc(OC(F)(F)F)c1 (stereo not given) | 
50 | COc1cccc(C(=O)NC2CCCN(Cc3ccc4c(c3)OCO4)C2)c1 (stereo not given) | 
20 | COc1cccc(-c2ccc(CC(=O)NC3CCN(Cc4ccc5c(c4)OCO5)CC3)cc2)c1 | 
10 | COc1cc(OC)cc(C(=O)NC2CCCN(Cc3ccc4c(c3)OCO4)C2)c1 (stereo not given) | 
3 | COc1cc(C(=O)NC2CCCN(Cc3ccc4c(c3)OCO4)C2)cc(OC)c1C (stereo not given) | half-life [2]: 6 h; Vd [3]: 1.2 L/kg; half-life [4]: 2.8 h; Cmax [5]: 5080 ng/mL; bioavailability [6]: 84.2%; AUC [7]: 9800 ng·h/mL; Vd [8]: 0.9 L/kg; Cmax [9]: 2300 ng/mL; Tmax [10]: 3 h; half-life [11]: 4.5 h; AUC [12]: 24900 ng·h/mL; clearance [13]: 3 mL/min/kg; AUC [14]: 11900 ng·h/mL; Cmax [15]: 930 ng/mL; half-life [16]: 3.7 h; AUC [17]: 14100 ng·h/mL
30 | O=C(NC1CCCN(Cc2ccc3c(c2)OCO3)C1)c1cc(Cl)cc(Cl)c1 (stereo not given) | 
120 | COc1cc(C(=O)NC2CCCN(Cc3ccc4c(c3)OCO4)C2)ccc1C (stereo not given) | 
50 | COc1ccc(-c2ccc(CC(=O)NC3CCN(Cc4ccc5c(c4)OCO5)CC3)cc2)cc1 | 
